This note sets out measurements from PubChem BioAssay AID1963975 (Molecular Pharmacology Branch, DTP, NCI, 2024).

For this assay, the system named is 624824-186-R-J2-PDC multicell spheroids, viability. The assay is described as follows: Anticancer human tumor 624824-186-R-J2-PDC patient-derived colon adenocarcinoma cell line growth inhibition [PI3K]. The note with it: for viability, T/C: stronger effect = lower value. In outline: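 Targeted small molecules plus PI3K inhibitors, half-log dose series from Cmax (default top 10 microM), were applied to heterotypic spheroids of cancer cells with HUVEC and MSCs. Viability indicated growth inhibition.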

Setting [1] is: curve of first compound, second compound 0.00316 µM.
The mark [2] stands for this setting: curve of first compound, second compound 0.01 µM.
[3] abbreviates: curve of first compound, second compound 0.0316 µM.
[4] abbreviates: curve of first compound, second compound 0.1 µM.
[5] abbreviates: curve of first compound, second compound 0.316 µM.
[6] abbreviates: curve of first compound, second compound 1 µM.
Setting [7] is: second compound 0.00316 µM, first compound 0.0316 µM.
Setting [8] is: second compound 0.00316 µM, first compound 0.1 µM.
Setting [9] is: second compound 0.01 µM, first compound 0.0316 µM.
[10] abbreviates: second compound 0.01 µM, first compound 0.1 µM.
Setting [11] is: second compound 0.0316 µM, first compound 0.0316 µM.
The mark [12] stands for this setting: second compound 0.0316 µM, first compound 0.1 µM.
[13] abbreviates: second compound 0.1 µM, first compound 0.0316 µM.
The mark [14] stands for this setting: second compound 0.1 µM, first compound 0.1 µM.
The mark [15] stands for this setting: second compound 0.316 µM, first compound 0.0316 µM.
The mark [16] stands for this setting: second compound 0.316 µM, first compound 0.1 µM.
Where [17] appears, read: second compound 1 µM, first compound 0.0316 µM.
[18] abbreviates: second compound 1 µM, first compound 0.1 µM.
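Note: spheroids exposed to agents for 7 days before viability read.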
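Throughout, for viability, T/C: 100% = DMSO vehicle treated spheroids.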

With `CC(=O)c1c(C)c2cnc(Nc3ccc(N4CCNCC4)cn3)nc2n(C2CCCC2)c1=O` + COc1c(OCCCN2CCOCC2)ccc2c3n(c(=NC(=O)c4cnc(N)nc4)nc12)CCN3, the IC50 under setting [1] was above 0.1 µM; the IC50 under setting [2] was above 0.1 µM; the 50% inhibitory concentration (IC50) under setting [3] was above 0.1 µM; the 50% inhibitory concentration (IC50) under setting [4] was above 0.1 µM; the concentration for half-maximal inhibition (IC50) under setting [5] is above 0.1 µM; the 50% inhibitory concentration (IC50) under setting [6] is above 0.1 µM. The viability, T/C runs as follows: (second compound 0.00316 µM, first compound 0.000316 µM) 95.5%; (second compound 0.00316 µM, first compound 0.001 µM) 94.7%; (second compound 0.00316 µM, first compound 0.00316 µM) 90.6%; (second compound 0.00316 µM, first compound 0.01 µM) 98.7%; under setting [7], 105%; under setting [8], 84%. Moreover, the viability, T/C (second compound 0.01 µM, first compound 0.000316 µM) was 104%; the viability, T/C (second compound 0.01 µM, first compound 0.001 µM) was 90%; the viability, T/C (second compound 0.01 µM, first compound 0.00316 µM) was 86.7%; the viability, T/C (second compound 0.01 µM, first compound 0.01 µM) is 94.3%; the viability, T/C under setting [9] was 97.6%; the viability, T/C under setting [10] is 96.5%. Moreover, the viability, T/C (second compound 0.0316 µM, first compound 0.000316 µM) was 82.7%; the viability, T/C (second compound 0.0316 µM, first compound 0.001 µM) was 94.4%; the viability, T/C (second compound 0.0316 µM, first compound 0.00316 µM) was 91.4%; the viability, T/C (second compound 0.0316 µM, first compound 0.01 µM) was 86.7%; the viability, T/C under setting [11] was 89%; the viability, T/C under setting [12] is 69.2%. In addition, the viability, T/C is, setting by setting: (second compound 0.1 µM, first compound 0.000316 µM) 65.9%; (second compound 0.1 µM, first compound 0.001 µM) 77.2%; (second compound 0.1 µM, first compound 0.00316 µM) 78.2%; (second compound 0.1 µM, first compound 0.01 µM) 70.8%; under setting [13], 70%; under setting [14], 55.6%. The viability, T/C by setting is: (second compound 0.316 µM, first compound 0.000316 µM) 61.4%; (second compound 0.316 µM, first compound 0.001 µM) 68.6%; (second compound 0.316 µM, first compound 0.00316 µM) 61.4%; (second compound 0.316 µM, first compound 0.01 µM) 57.9%; under setting [15], 66.9%; under setting [16], 53.4%. Besides, the viability, T/C is, setting by setting: (second compound 1 µM, first compound 0.000316 µM) 59%; (second compound 1 µM, first compound 0.001 µM) 58%; (second compound 1 µM, first compound 0.00316 µM) 58.7%; (second compound 1 µM, first compound 0.01 µM) 58.4%; under setting [17], 62.9%; under setting [18], 55.7%.
As for `COc1c(OCCCN2CCOCC2)ccc2c3n(c(=NC(=O)c4cnc(N)nc4)nc12)CCN3`, the viability, T/C (compound 0.01 µM) was 91.7% [middle of 8 runs]; the viability, T/C (compound 0.0316 µM) was 88.2% [middle of 8 runs]; the viability, T/C (compound 0.1 µM) was 75.5% [middle of 8 runs]; the viability, T/C (compound 0.316 µM) was 67.3% [middle of 8 runs]; the viability, T/C (compound 1 µM) is 65.1% [middle of 8 runs]. Besides, the IC50 (compound alone, run of 06/13/2023) is above 1 µM.
In the case of `C=CC(=O)N1CCN(c2nc(=O)n(-c3c(C)ccnc3C(C)C)c3nc(-c4c(O)cccc4F)c(F)cc23)C(C)C1` (stereo not given) + COc1c(OCCCN2CCOCC2)ccc2c3n(c(=NC(=O)c4cnc(N)nc4)nc12)CCN3, the IC50 is above 10 µM under setting [1]; above 10 µM under setting [2]; above 10 µM under setting [3]; above 10 µM under setting [4]; above 10 µM under setting [5]; above 10 µM under setting [6]. Also, the viability, T/C was 96.5% under setting [7]; 109% under setting [8]; 95.6% (second compound 0.00316 µM, first compound 0.316 µM); 77.9% (second compound 0.00316 µM, first compound 1 µM); 88.7% (second compound 0.00316 µM, first compound 3.16 µM); 80.8% (second compound 0.00316 µM, first compound 10 µM). For the same compound, the viability, T/C is 102% under setting [9]; 98.4% under setting [10]; 101% (second compound 0.01 µM, first compound 0.316 µM); 75.3% (second compound 0.01 µM, first compound 1 µM); 93% (second compound 0.01 µM, first compound 3.16 µM); 88.4% (second compound 0.01 µM, first compound 10 µM). For the same compound, the viability, T/C was 88.4% under setting [11]; 86.5% under setting [12]; 97.3% (second compound 0.0316 µM, first compound 0.316 µM); 75.1% (second compound 0.0316 µM, first compound 1 µM); 89.5% (second compound 0.0316 µM, first compound 3.16 µM); 81.7% (second compound 0.0316 µM, first compound 10 µM). Also, the viability, T/C is 80.4% under setting [13]; 61.1% under setting [14]; 80.1% (second compound 0.1 µM, first compound 0.316 µM); 67.9% (second compound 0.1 µM, first compound 1 µM); 69% (second compound 0.1 µM, first compound 3.16 µM); 69% (second compound 0.1 µM, first compound 10 µM). In addition, the viability, T/C is 62.6% under setting [15]; 59.3% under setting [16]; 59.5% (second compound 0.316 µM, first compound 0.316 µM); 61.6% (second compound 0.316 µM, first compound 1 µM); 69.8% (second compound 0.316 µM, first compound 3.16 µM); 61% (second compound 0.316 µM, first compound 10 µM). The viability, T/C under setting [17] is 59.1%; the viability, T/C under setting [18] was 53%; the viability, T/C (second compound 1 µM, first compound 0.316 µM) was 65.5%; the viability, T/C (second compound 1 µM, first compound 1 µM) was 58.1%; the viability, T/C (second compound 1 µM, first compound 3.16 µM) is 64.5%; the viability, T/C (second compound 1 µM, first compound 10 µM) was 60.5%.
`CC(C)NCC(C(=O)N1CCN(c2ncnc3c2C(C)CC3O)CC1)c1ccc(Cl)cc1` (stereo not given): the viability, T/C was 92.5% [middle of 4 runs] (compound 0.1 µM), 84.4% [middle of 4 runs] (compound 0.316 µM), 88.5% [middle of 4 runs] (compound 3.16 µM) and 85.7% [middle of 4 runs] (compound 10 µM). Moreover, the IC50 (curve of compound) is above 10 µM.

The term IC50 denotes the concentration that gives 50% inhibition. What is called viability, T/C is the result in the treated group divided by that in the control group, in per cent.
